Source: patent publication US9868734B2, “Conjugate of benzofuranone and indole or azaindole, and preparation and uses thereof” (Luoda Biosciences, Inc., priority 2013, dated 2018)
Read-outs that look alike come from different tables or passages of the source.

What was measured:
[1] = test system: human lung adenocarcinoma epithelial cell line A549; test: MTT assay, inhibition of tumor cell growth (A549); type: cell-based; conditions: 72 hours incubation, read-out: IC50 on the tumor cells A549
Method: (§1) human hepatocellular carcinoma cell line HepG-2, human lung adenocarcinoma epithelial cell line A549
(§2) Tumor cells were seeded in RPM11640 medium containing 10% calf serum, incubated at 37° C., 5% CO2 in CO2 incubator, and passaged every 2-3 days. Cells at logarithmic growth phase were used for this experiment.
(§3) The cells at logarithmic growth phase were formulated into suspension. The cell viability by trypan blue staining was more than 98%. The cell suspension was divided into several groups: 1 as blank control group (cell suspension plus solvent DMSO); and 2 as experimental groups (cell suspension plus compounds to be tested).
(§4) The drugs were formulated into a stock solution in DMSO, and the concentration of the stock solution was 20 mmol (used within 4 hours). In the experiment, the work solution of the drugs was diluted with RPMI1640 medium containing 10% calf serum under aseptic condition, to a final concentration of […]. The drug concentrations were increased by 2 times (1.25-20 μM).
(§5) The cells in logarithmic growth phase were selected, centrifuged, counted, and formulated into a cell suspension (2.5×10^4/ml) with RPMI1640 medium containing 10% calf serum. The cell suspension were inoculated into 96-well plates at a density of 5000 cells/200 μl per well, incubated for 24 hours at 37° C., 5% CO2. According to the above concentration of the drug, the cells were inoculated to 6 groups (including one control group), with 8 wells per group. After incubating for 72 hours, the viability of cells was measured by MTT assay. The absorbance value (A) was measured with detection wavelength at 540 nm, reference wavelength at 630 nm. The inhibitory rate (I) was calculated by the following equation, where T was the absorbance value of the experimental groups, and C was the absorbance value of the blank control group: I=(1−T/C)×100%
(§6) Equation of regression line was drawn from concentration-inhibitory rate curve, from which the IC50 of tested sample was calculated.

[2] = test system: human hepatocellular carcinoma cell line HepG-2; test: MTT assay, inhibition of tumor cell growth (HepG2); type: cell-based; conditions: 72 hours incubation, read-out: IC50 on the tumor cells HepG2
Method: as §1, §2, §3, §4, §5, §6

Row | IC50 [1] [µM] | IC50 [2] [µM] | IC50 ([1]; Homo sapiens) [µM] | IC50 ([2]; Homo sapiens) [µM] | Structure (SMILES)
1 | 9.4 ± 0.6 | 19 ± 1.1 |  |  | CON=C1C(=C2C(=O)N(Cc3ccccc3)c3ccncc32)Oc2ccccc21 [Compound 74]
2 |  |  | 8 ± 1.2 | 10 ± 1.4 | O=C1Nc2ncccc2/C1=C1/Oc2ccccc2C1=O [Compound 75, 1′-oxo-7-azaindirubin]
3 | 17.4 ± 1.7 | 31.5 ± 2.5 |  |  | CCN1C(=O)C(=C2Oc3c(Cl)cccc3C2=O)c2cccnc21 [Compound 79]
4 | 16 ± 2 | 18 ± 2.3 |  |  | CC(C)N1C(=O)C(=C2Oc3ccccc3C2=O)c2cc(Cl)cnc21 [Compound 82]
5 | 25 ± 2.7 | 18.5 ± 1.5 |  |  | CCN1C(=O)C(=C2Oc3c(Cl)cccc3C2=O)c2cccnc21 [Compound 85]
6 | 87 ± 2.1 | 80.1 ± 1.5 |  |  | CC(C)N1C(=O)C(=C2Oc3ccccc3C2=NO)c2cc(Cl)cnc21 [Compound 88]
7 | 29 ± 1.8 | 30.2 ± 1.5 |  |  | CON=C1C(=C2C(=O)N(Cc3ccccc3)c3ncccc32)Oc2ccccc21 [Compound 90]
8 | 31.7 ± 1.5 | 15.2 ± 1.2 |  |  | O=C1Nc2ccc(F)cc2C1=C1C(=O)Oc2ccccc21 [Compound 92]
9 | 17.2 ± 1.6 | 14.2 ± 1.3 |  |  | CN1C(=O)C(=C2C(=O)Oc3ccccc32)c2ccc(Cl)cc21 [Compound 96]
10 | 7 ± 1.4 | 9.2 ± 2 |  |  | CCN1C(=O)C(=C2C(=O)Oc3ccccc32)c2ccccc21 [Compound 100]
11 | 35.5 ± 2.9 | 3.8 ± 1.5 |  |  | CC(C)N1C(=O)C(=C2C(=O)Oc3ccccc32)c2ccccc21 [Compound 106]
12 | 90.1 ± 4.5 | > 100 |  |  | O=C1Oc2ccccc2C1=C1C(=O)N(C2OC(CO)C(O)C(O)C2O)c2ccccc21 (stereo not drawn) [Compound 112]
13 | 3.7 ± 0.6 | 7.4 ± 1.7 |  |  | COc1ccc2c(c1)C(=C1C(=O)N(Cc3ccccc3)c3ccccc31)C(=O)O2 [Compound 116]
14 | 39.6 ± 1.7 | 27.5 ± 1.3 |  |  | O=C1Oc2ccccc2C1=C1C(=O)N(Cc2ccccc2)c2ccc(Cl)cc21 [Compound 119]
15 | 49.1 ± 2.6 | 43 ± 2.2 |  |  | O=C1Oc2ccccc2C1=C1C(=O)N(Cc2ccccc2)c2cc(Cl)ccc21 [Compound 120]
16 | 11.6 ± 1.1 | 15.6 ± 1.2 |  |  | O=C1Nc2ccncc2C1=C1C(=O)Oc2ccccc21 [Compound 121]
17 | 5.8 ± 0.8 | 9.1 ± 1 |  |  | CN1C(=O)C(=C2C(=O)Oc3ccccc32)c2cnccc21 [Compound 123]
18 | 4.7 ± 0.9 | 8.4 ± 1.3 |  |  | CCN1C(=O)C(=C2C(=O)Oc3ccccc32)c2cnccc21 [Compound 127, N-ethyl-1′-oxo-5-azaisoindigo]
19 | 28.5 ± 1.6 | 19.6 ± 1.3 |  |  | CC(C)N1C(=O)C(=C2C(=O)Oc3ccccc32)c2cnc(F)cc21 [Compound 130]
20 | 11.5 ± 1.2 | 26 ± 2.1 |  |  | O=C1Oc2ccccc2C1=C1C(=O)N(Cc2ccccc2)c2ccncc21 [Compound 134]
21 | 12.1 ± 1.4 | 25.8 ± 1.7 |  |  | O=C1Nc2nc(Cl)ccc2C1=C1C(=O)Oc2ccccc21 [Compound 138]
22 | 1.9 ± 0.8 | 7.3 ± 0.8 |  |  | Cc1cccc2c1OC(=O)C2=C1C(=O)N(C)c2ncccc21 [Compound 140]
23 | 26.3 ± 2.1 | 35.2 ± 2.3 |  |  | CCN1C(=O)C(=C2C(=O)Oc3ccccc32)c2cc(F)cnc21 [Compound 146]
24 | 7.9 ± 1.3 | 5.6 ± 0.6 |  |  | CC(C)N1C(=O)C(=C2C(=O)Oc3ccc(F)cc32)c2cccnc21 [Compound 150]
25 | 18.2 ± 1.2 | 42.3 ± 1.8 |  |  | O=C1Oc2ccccc2C1=C1C(=O)N(Cc2ccccc2)c2ncccc21 [Compound 152]
26 |  |  | 19 ± 1.1 | 7.1 ± 0.7 | CCN1C(=O)/C(=C2\Nc3ccccc3C2=O)c2ccccc21 [Compound 154, 1-ethyl-indirubin, reference compound]
27 |  |  | 30.3 ± 1.5 | 7 ± 1.3 | CCN1C(=O)/C(=C2\Nc3ccccc3\C2=N/O)c2ccccc21 [Compound 155, 1-ethyl-indirubin-3′-oxime, reference compound]
